# Reference: ChEMBL document CHEMBL3817812, “An expeditious four-component domino protocol for the synthesis of novel thiazolo[3,2-a]thiochromeno[4,3-d]pyrimidine derivatives as antibacterial and antibiofilm agents” (Bioorg Med Chem, 2016)
# Activity calls are given as the source filed them. No cut-off for these calls is given here.
# Legend:
# Escherichia coli = assay: Antibacterial activity against Escherichia coli MTCC 739 incubated for 24 hrs by well diffusion method; type: functional; conditions: MTCC 739, 24 h
# Pseudomonas aeruginosa = assay: Antibacterial activity against Pseudomonas aeruginosa MTCC 2453 incubated for 24 hrs by well diffusion method; type: functional; conditions: MTCC 2453, 24 h
# Raoultella planticola = assay: Antibacterial activity against Klebsiella planticola MTCC 530 incubated for 24 hrs by well diffusion method; type: functional; conditions: MTCC 530, 24 h
# Micrococcus luteus [1] = assay: Antibacterial activity against Micrococcus luteus MTCC 2470 incubated for 24 hrs by well diffusion method; type: functional; conditions: MTCC 2470, 24 h
# Staphylococcus aureus [2] = assay: Antibacterial activity against Staphylococcus aureus MLS16 MTCC 2940 incubated for 24 hrs by well diffusion method; type: functional; conditions: MLS16 MTCC 2940, 24 h
# Bacillus subtilis [3] = assay: Antibacterial activity against Bacillus subtilis MTCC 121 incubated for 24 hrs by well diffusion method; type: functional; conditions: MTCC 121, 24 h
# Staphylococcus aureus [4] = assay: Antibacterial activity against Staphylococcus aureus MTCC 96 incubated for 24 hrs by well diffusion method; type: functional; conditions: MTCC 96, 24 h
# Staphylococcus aureus [5] = assay: Bactericidal activity against Staphylococcus aureus MTCC 96 incubated for 24 hrs by broth dilution method; type: functional; conditions: MTCC 96, 24 h
# Bacillus subtilis [6] = assay: Bactericidal activity against Bacillus subtilis MTCC 121 incubated for 24 hrs by broth dilution method; type: functional; conditions: MTCC 121, 24 h
# Staphylococcus aureus [7] = assay: Bactericidal activity against Staphylococcus aureus MLS16 MTCC 2940 incubated for 24 hrs by broth dilution method; type: functional; conditions: MLS16 MTCC 2940, 24 h
# Micrococcus luteus [8] = assay: Bactericidal activity against Micrococcus luteus MTCC 2470 incubated for 24 hrs by broth dilution method; type: functional; conditions: MTCC 2470, 24 h
# Staphylococcus aureus [9] = assay: Antibiofilm activity against Staphylococcus aureus MTCC 96 incubated for 24 hrs by crystal violet staining-based assay; type: functional, organism-based; conditions: MTCC 96, 24 h
# Bacillus subtilis [10] = assay: Antibiofilm activity against Bacillus subtilis MTCC 121 incubated for 24 hrs by crystal violet staining-based assay; type: functional, organism-based; conditions: MTCC 121, 24 h
# Staphylococcus aureus [11] = assay: Antibiofilm activity against Staphylococcus aureus MLS16 MTCC 2940 incubated for 24 hrs by crystal violet staining-based assay; type: functional, organism-based; conditions: MLS16 MTCC 2940, 24 h
# Micrococcus luteus [12] = assay: Antibiofilm activity against Micrococcus luteus MTCC 2470 incubated for 24 hrs by crystal violet staining-based assay; type: functional, organism-based; conditions: MTCC 2470, 24 h
# Staphylococcus aureus [13] = assay: Induction of ROS accumulation in Staphylococcus aureus MTCC 96 biofilm at 2 ug/ml after 24 hrs by DCFH-DA staining-based fluorometric assay; type: functional, organism-based
# Staphylococcus aureus [14] = assay: Induction of ROS accumulation in Staphylococcus aureus MTCC 96 biofilm at 4 ug/ml after 24 hrs by DCFH-DA staining-based fluorometric assay; type: functional, organism-based
Compound,MIC (Escherichia coli) [µg/mL],MIC (Pseudomonas aeruginosa) [µg/mL],MIC (Raoultella planticola) [µg/mL],MIC (Micrococcus luteus [1]) [µg/mL],MIC (Staphylococcus aureus [2]) [µg/mL],MIC (Bacillus subtilis [3]) [µg/mL],MIC (Staphylococcus aureus [4]) [µg/mL],MBC (Staphylococcus aureus [5]) [µg/mL],MBC (Bacillus subtilis [6]) [µg/mL],MBC (Staphylococcus aureus [7]) [µg/mL],MBC (Micrococcus luteus [8]) [µg/mL],IC50 (Staphylococcus aureus [9]) [µg/mL],IC50 (Bacillus subtilis [10]) [µg/mL],IC50 (Staphylococcus aureus [11]) [µg/mL],IC50 (Micrococcus luteus [12]) [µg/mL],Activity (Staphylococcus aureus [13]),Activity (Staphylococcus aureus [14])
C1=C(c2ccccc2)N2C(=NC3=C(CSc4ccccc43)C2c2ccccc2)S1 (configuration not stated),> 125,> 125,> 125,> 125,> 125,> 125,31.2,62.5,> 125,> 125,> 125,–,–,–,–,–,–
Clc1ccc(C2C3=C(N=C4SC=C(c5ccccc5)N42)c2ccccc2SC3)cc1 (configuration not stated),> 125,> 125,> 125,> 125,15.6,> 125,> 125,–,–,–,–,–,–,–,–,–,–
O=[N+]([O-])c1cccc(C2C3=C(N=C4SC=C(c5ccc(Cl)cc5)N42)c2ccccc2SC3)c1 (configuration not stated),> 125,> 125,> 125,> 125,> 125,> 125,> 125,–,–,–,–,–,–,–,–,–,–
Clc1ccc(C2=CSC3=NC4=C(CSc5ccccc54)C(c4ccccc4)N23)cc1 (configuration not stated),> 125,> 125,> 125,> 125,> 125,> 125,> 125,–,–,–,–,–,–,–,–,–,–
O=c1oc2ccccc2cc1C1=CSC2=NC3=C(CSc4ccccc43)C(c3ccc(Cl)cc3)N12 (configuration not stated),> 125,> 125,> 125,> 125,> 125,> 125,> 125,–,–,–,–,–,–,–,–,–,–
Cc1ccc(C2C3=C(N=C4SC=C(c5cc6ccccc6oc5=O)N42)c2ccccc2SC3)cc1 (configuration not stated),> 125,> 125,> 125,> 125,31.2,> 125,31.2,62.5,> 125,31.2,> 125,–,–,–,–,–,–
Brc1ccc(C2=CSC3=NC4=C(CSc5ccccc54)C(c4ccccc4)N23)cc1 (configuration not stated),> 125,> 125,> 125,> 125,> 125,> 125,> 125,–,–,–,–,–,–,–,–,–,–
O=c1oc2ccccc2cc1C1=CSC2=NC3=C(CSc4ccccc43)C(c3cccc([N+](=O)[O-])c3)N12 (configuration not stated),> 125,> 125,> 125,> 125,> 125,> 125,> 125,–,–,–,–,–,–,–,–,–,–
O=c1oc2ccccc2cc1C1=CSC2=NC3=C(CSc4ccccc43)C(c3ccccc3)N12 (configuration not stated),> 125,> 125,> 125,31.2,31.2,31.2,15.6,31.2,62.5,62.5,31.2,–,–,–,–,–,–
Cc1ccc(C2=CSC3=NC4=C(CSc5ccccc54)C(c4ccccc4)N23)cc1 (configuration not stated),> 125,> 125,> 125,7.8,3.9,3.9,3.9,7.8,3.9,7.8,15.6,2.1,1.9,2.4,5.3,Active,Active
O=C(O)c1cn(C2CC2)c2cc(N3CCNCC3)c(F)cc2c1=O [CIPROFLOXACIN],0.9,0.9,0.9,0.9,0.9,0.9,0.9,1.9,0.9,0.9,1.9,–,–,0.4,0.4,Active,Active
COc1ccc(C2=CSC3=NC4=C(CSc5ccccc54)C(c4ccc(Cl)cc4)N23)cc1 (configuration not stated),> 125,> 125,> 125,> 125,15.6,62.5,7.8,15.6,62.5,31.2,> 125,–,–,–,–,–,–
Cc1ccc(C2C3=C(N=C4SC=C(c5ccc(Br)cc5)N42)c2ccccc2SC3)cc1 (configuration not stated),> 125,> 125,> 125,> 125,> 125,> 125,> 125,–,–,–,–,–,–,–,–,–,–
O=[N+]([O-])c1ccc(C2=CSC3=NC4=C(CSc5ccccc54)C(c4ccc(Cl)cc4)N23)cc1 (configuration not stated),> 125,> 125,> 125,15.6,> 125,15.6,> 125,> 125,31.2,> 125,31.2,–,–,–,–,–,–
Clc1ccc(C2C3=C(N=C4SC=C(c5ccc(Br)cc5)N42)c2ccccc2SC3)cc1 (configuration not stated),> 125,> 125,> 125,> 125,> 125,31.2,31.2,62.5,31.2,> 125,> 125,–,–,–,–,–,–
